Broadly, the LC50 is the concentration lethal to half of the exposed cells or organisms. Higher therefore signals a less lethal substance. Usually IC50 stands for the concentration needed to halve the response being measured. One may read the MIC as the least concentration at which growth counts as inhibited.

Values after ≈ are worked out from the molar mass of the structure shown. Read-outs that look alike come from different tables or passages of the source. Some results are limits rather than exact numbers.

The record followed here is PMC7824341, “Phenylhydrazone and Quinazoline Derivatives from the Cold-Seep-Derived Fungus Penicillium oxalicum” (Marine Drugs, 2020).

Data set [1] in a line: in vivo. To be noted: in vivo; marine zooplankton Artemia salina. As for the experimental part:
(§1) Mariculture is often threatened by harmful algal blooms and pathogenic bacteria. Compounds 1–5 and dankasterone A were assayed for inhibition of the three microalgae Chattonella marina, Heterosigma akashiwo, and Prorocentrum donghaiense, and the results are shown in Table 4. […] In addition, their inhibition against four marine-derived bacterial pathogens including Vibrio anguillarum, Vibrio harveyi, Vibrio parahaemolyticus, and Vibrio splendidus was detected using the disk diffusion method. […] The MIC values of active molecules were also measured, but only those of 4 and 5 (8 μg/mL) appeared lower than 10 μg/mL. […] In view of the above inhibitory effects of 1, 4, 5, and dankasterone A on the microalgal and bacterial species, their toxicities to the marine zooplankton Artemia salina were also tested.

Data set [2] concerns Vibrio splendidus. The data set is described as follows: Antibacterial disk diffusion method. It counts as cell-based. To be noted: at 20 μg/disk; for zone of inhibition at 20 µg/disc: Vibrio splendidus, read-out: Inhibitory Zone Diameter V. splendidus. The procedure:
as §1
A general note: Agar diffusion results depend on both activity and mobility in agar.

In data set [3] the test system is Vibrio harveyi. The data set is described as follows: Antibacterial disk diffusion method. It counts as cell-based. As to conditions: at 20 μg/disk, read-out: Inhibitory Zone Diameter V. harveyi. The procedure:
as §1

In data set [4] the test system is Vibrio parahaemolyticus. The data set is described as follows: Antibacterial disk diffusion method. It counts as cell-based. To be noted: at 20 μg/disk, read-out: Inhibitory Zone Diameter V. parahaemolyticus. The procedure:
as §1

In data set [5] the test system is Vibrio anguillarum. The data set is described as follows: Antibacterial disk diffusion method. It counts as cell-based. As to conditions: at 20 μg/disk; for zone of inhibition at 20 µg/disc: Vibrio anguillarum, read-out: Inhibitory Zone Diameter V. anguillarum. The procedure: as §1
Data set [6] deals with Heterosigma akashiwo. The data set is described as follows: Inhibition of marine microalgae. It counts as cell-based. As to conditions: microalga Heterosigma akashiwo; for IC50: Heterosigma akashiwo, read-out: IC50 H. akashiwo. The procedure:
as §1

The subject of data set [7] is Prorocentrum donghaiense. The data set is described as follows: Inhibition of marine microalgae. It counts as cell-based. As to conditions: microalga Prorocentrum donghaiense; for IC50: Prorocentrum donghaiense, read-out: IC50 P. donghaiense. The procedure: as §1
In data set [8] the test system is Chattonella marina. The data set is described as follows: Inhibition of marine microalgae. It counts as cell-based. To be noted: microalga Chattonella marina; for IC50: Chattonella marina, read-out: IC50 C. marina. As for the experimental part: as §1
In data set [9] the test system is V. harveyi and V. parahaemolyticus. The data set is described as follows: MIC of active molecules against marine-derived bacterial pathogens. It counts as cell-based, Vibrio harveyi, Vibrio parahaemolyticus. To be noted: bacterial strain not given, active molecules were those inhibiting V. harveyi and V. parahaemolyticus. The procedure:
as §1

Data set [10] has as its system Artemia salina. The data set is described as follows: in vivo. As to conditions: marine zooplankton Artemia salina. As for the experimental part:
as §1

`CC(C)C(C)C=CC(C)C1CCC(=O)C23CC(=O)C4=CC(=NNc5ccccc5C(=O)O)CCC4(C)C2CCC13C` (stereo not shown) [Compound 1, Penoxahydrazone A] yielded an LC50 in [1] of 58 µg/mL (≈ 104 µM). Moreover, the zone of inhibition at 20 µg/disc in data set [2] was 0 mm; in data set [3] it was above 10 mm; in data set [4], above 10 mm; in [5] it was 0 mm. In addition, the IC50 in data set [6] is 3.7 µg/mL (≈ 6.62 µM); in [7] it was 0.68 µg/mL (≈ 1.22 µM); in data set [8], 1.2 µg/mL (≈ 2.15 µM).

For the compound `COC(=O)C(Cc1ccc(O)cc1)n1cnc2ccccc2c1=O` (stereo not shown) [Compound 4, Penoxazolone A], the median lethal concentration (LC50) in [1] was above 100 µg/mL. For the same compound, the minimum inhibitory concentration (MIC) in data set [9] (read-out: MIC) was found to be 8 µg/mL. The zone of inhibition at 20 µg/disc in data set [2] is 7.3 mm; in data set [3], above 10 mm; in data set [4] it was above 10 mm. The “Inhibitory Zone Diameter V. anguillarum” value in data set [5] was found to be 7.0 mm. Besides, the IC50 in [6] worked out at 8.1 µg/mL (≈ 25 µM). For the same compound, the “IC50 P. donghaiense” value in data set [7] was 0.57 µg/mL (≈ 1.76 µM). Also, in data set [8], the “IC50 C. marina” value is 2.8 µg/mL (≈ 8.63 µM).

As for `COC(=O)C(Cc1ccc(O)cc1)n1cnc2ccccc2c1=O` (stereo not shown) [Compound 5, Penoxazolone B], the “LC50 A. salina” value in data set [10] is above 100 µg/mL. Further, the MIC in data set [9] is 8 µg/mL. Also, the “Inhibitory Zone Diameter V. splendidus” value in [2] is listed as 7.0 mm. Besides, the “Inhibitory Zone Diameter V. anguillarum” value in [5] is 0 mm. In addition, the “IC50 H. akashiwo” value in data set [6] amounted to 9.0 µg/mL (≈ 27.7 µM). For the same compound, the “IC50 P. donghaiense” value in data set [7] was found to be 1.2 µg/mL (≈ 3.7 µM). Moreover, the “IC50 C. marina” value in data set [8] amounted to 9.1 µg/mL (≈ 28.1 µM).

As for `[K+].[K+].[O]=[Cr](=[O])([O-])[O][Cr](=[O])(=[O])[O-]` [Compound K2Cr2O7, K2Cr2O7, reference compound], the “LC50 A. salina” value in data set [10] was 18 µg/mL. In data set [6], the “IC50 H. akashiwo” value came out at 2.4 µg/mL. Further, the “IC50 P. donghaiense” value in data set [7] is 1.2 µg/mL. In addition, the “IC50 C. marina” value in [8] worked out at 0.60 µg/mL.

Take `O=C(N[C@H](CO)[C@H](O)c1ccc([N+](=O)[O-])cc1)C(Cl)Cl` [chloramphenicol, reference compound]: the zone of inhibition at 20 µg/disc in data set [2] amounted to 23 mm; in data set [3], 29 mm; in data set [4] it was 28 mm; in data set [5], 18 mm.

Regarding `CC(C)[C@@H](C)/C=C/[C@@H](C)[C@H]1CCC(=O)[C@]23CC(=O)C4=CC(=O)CC[C@]4(C)[C@H]2CC[C@]13C` [dankasterone A], in data set [1], the LC50 was 43 µg/mL (≈ 101 µM). Further, the zone of inhibition at 20 µg/disc in [2] is 0 mm; in data set [3], above 10 mm; in [4], above 10 mm; in data set [5], 7 mm. The IC50 amounted to 4.6 µg/mL (≈ 10.8 µM) in data set [6], 1 µg/mL (≈ 2.36 µM) in data set [7] and 1.9 µg/mL (≈ 4.47 µM) in data set [8].
